Data published in doi:10.1101/2021.09.30.462449v1 (biorxiv, 2021).

Legend:
Test in all cases: biochemical
Details in all cases: read-out: % inhibition mean (Z'Lyte)
ABL1 Y253F = ABL1 Y253F (Homo sapiens, UniProt P00519, Y253F)
ALK = ALK (Homo sapiens, UniProt Q9UM73)
AURKC (Aurora C) = AURKC (Aurora C) (Homo sapiens, UniProt Q9UQB9)
BRAF = BRAF (Homo sapiens, UniProt P15056)
CSNK1G2 (CK1 gamma 2) = CSNK1G2 (CK1 gamma 2) (Homo sapiens, UniProt P78368)
DNA-PK = DNA-PK (Homo sapiens, UniProt P78527)
EEF2K = EEF2K (Homo sapiens, UniProt O00418)
Sequence of EEF2K (O00418 whole entry): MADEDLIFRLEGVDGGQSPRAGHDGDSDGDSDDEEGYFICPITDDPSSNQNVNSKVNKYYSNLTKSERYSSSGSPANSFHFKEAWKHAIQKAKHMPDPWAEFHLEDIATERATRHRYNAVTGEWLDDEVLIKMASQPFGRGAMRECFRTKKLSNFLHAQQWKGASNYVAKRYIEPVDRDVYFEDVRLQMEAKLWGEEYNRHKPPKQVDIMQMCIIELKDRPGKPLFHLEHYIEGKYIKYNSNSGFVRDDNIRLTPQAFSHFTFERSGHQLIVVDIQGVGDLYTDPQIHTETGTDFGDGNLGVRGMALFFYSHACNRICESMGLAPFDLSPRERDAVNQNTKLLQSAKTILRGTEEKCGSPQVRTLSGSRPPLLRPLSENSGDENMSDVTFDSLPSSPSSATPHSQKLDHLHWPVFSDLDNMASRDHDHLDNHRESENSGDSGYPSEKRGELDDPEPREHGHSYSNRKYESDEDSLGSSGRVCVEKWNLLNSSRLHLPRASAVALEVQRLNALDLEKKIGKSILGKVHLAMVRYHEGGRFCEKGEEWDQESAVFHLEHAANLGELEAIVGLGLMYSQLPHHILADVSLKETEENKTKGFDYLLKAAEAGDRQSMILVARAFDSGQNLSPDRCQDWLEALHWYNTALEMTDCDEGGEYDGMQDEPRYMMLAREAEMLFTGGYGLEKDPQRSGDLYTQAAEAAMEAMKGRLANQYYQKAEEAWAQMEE

EGFR (ErbB1) G719C = EGFR (ErbB1) G719C (Homo sapiens, UniProt P00533, G719C)
EGFR (ErbB1) L861Q = EGFR (ErbB1) L861Q (Homo sapiens, UniProt P00533, L861Q)
EGFR (ErbB1) T790M = EGFR (ErbB1) T790M (Homo sapiens, UniProt P00533, T790M)
EPHA1 = EPHA1 (Homo sapiens, UniProt P21709)
INSRR (IRR) = INSRR (IRR) (Homo sapiens, UniProt P14616)
JAK2 = JAK2 (Homo sapiens, UniProt O60674)
Sequence of JAK2 (O60674 whole entry): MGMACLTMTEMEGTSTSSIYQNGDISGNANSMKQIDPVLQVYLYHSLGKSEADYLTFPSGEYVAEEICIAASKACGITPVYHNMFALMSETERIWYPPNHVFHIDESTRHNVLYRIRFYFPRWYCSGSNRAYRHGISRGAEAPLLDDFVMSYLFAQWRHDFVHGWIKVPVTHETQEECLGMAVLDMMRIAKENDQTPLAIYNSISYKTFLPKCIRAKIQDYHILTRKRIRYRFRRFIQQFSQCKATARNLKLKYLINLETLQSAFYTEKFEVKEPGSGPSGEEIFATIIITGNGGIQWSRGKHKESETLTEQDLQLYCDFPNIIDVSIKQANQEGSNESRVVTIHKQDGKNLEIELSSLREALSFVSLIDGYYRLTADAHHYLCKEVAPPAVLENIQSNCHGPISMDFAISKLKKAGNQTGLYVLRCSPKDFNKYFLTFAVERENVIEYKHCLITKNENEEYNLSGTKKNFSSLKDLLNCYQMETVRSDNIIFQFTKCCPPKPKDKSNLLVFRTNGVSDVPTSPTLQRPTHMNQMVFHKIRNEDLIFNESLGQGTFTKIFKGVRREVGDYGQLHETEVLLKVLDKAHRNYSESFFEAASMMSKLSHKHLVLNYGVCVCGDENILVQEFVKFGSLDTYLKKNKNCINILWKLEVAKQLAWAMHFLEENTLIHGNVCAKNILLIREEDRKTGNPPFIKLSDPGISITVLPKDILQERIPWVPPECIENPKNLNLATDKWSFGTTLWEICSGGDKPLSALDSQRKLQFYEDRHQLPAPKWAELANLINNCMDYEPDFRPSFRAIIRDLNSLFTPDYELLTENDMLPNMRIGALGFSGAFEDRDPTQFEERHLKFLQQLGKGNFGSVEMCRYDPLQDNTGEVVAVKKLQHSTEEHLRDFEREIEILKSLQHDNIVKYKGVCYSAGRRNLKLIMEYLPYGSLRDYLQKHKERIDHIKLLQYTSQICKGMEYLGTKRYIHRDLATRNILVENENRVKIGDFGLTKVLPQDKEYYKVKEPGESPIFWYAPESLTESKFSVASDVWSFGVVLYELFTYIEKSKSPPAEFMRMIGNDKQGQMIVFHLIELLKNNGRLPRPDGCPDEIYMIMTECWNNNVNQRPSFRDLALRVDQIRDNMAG

JAK2 JH1 JH2 V617F = JAK2 JH1 JH2 V617F (Homo sapiens, UniProt O60674, V617F)
Sequence of JAK2 JH1 JH2 V617F (O60674 whole entry V617F): as the sequence (O60674 whole entry) above, with V617F counted along it

JAK3 = JAK3 (Homo sapiens, UniProt P52333)
MAPKAPK2 = MAPKAPK2 (Homo sapiens, UniProt P49137)
MAPKAPK3 = MAPKAPK3 (Homo sapiens, UniProt Q16644)
MINK1 = MINK1 (Homo sapiens, UniProt Q8N4C8)
NTRK3 (TRKC) = NTRK3 (TRKC) (Homo sapiens, UniProt Q16288)
PAK6 = PAK6 (Homo sapiens, UniProt Q9NQU5)
Sequence of PAK6 (Q9NQU5 whole entry): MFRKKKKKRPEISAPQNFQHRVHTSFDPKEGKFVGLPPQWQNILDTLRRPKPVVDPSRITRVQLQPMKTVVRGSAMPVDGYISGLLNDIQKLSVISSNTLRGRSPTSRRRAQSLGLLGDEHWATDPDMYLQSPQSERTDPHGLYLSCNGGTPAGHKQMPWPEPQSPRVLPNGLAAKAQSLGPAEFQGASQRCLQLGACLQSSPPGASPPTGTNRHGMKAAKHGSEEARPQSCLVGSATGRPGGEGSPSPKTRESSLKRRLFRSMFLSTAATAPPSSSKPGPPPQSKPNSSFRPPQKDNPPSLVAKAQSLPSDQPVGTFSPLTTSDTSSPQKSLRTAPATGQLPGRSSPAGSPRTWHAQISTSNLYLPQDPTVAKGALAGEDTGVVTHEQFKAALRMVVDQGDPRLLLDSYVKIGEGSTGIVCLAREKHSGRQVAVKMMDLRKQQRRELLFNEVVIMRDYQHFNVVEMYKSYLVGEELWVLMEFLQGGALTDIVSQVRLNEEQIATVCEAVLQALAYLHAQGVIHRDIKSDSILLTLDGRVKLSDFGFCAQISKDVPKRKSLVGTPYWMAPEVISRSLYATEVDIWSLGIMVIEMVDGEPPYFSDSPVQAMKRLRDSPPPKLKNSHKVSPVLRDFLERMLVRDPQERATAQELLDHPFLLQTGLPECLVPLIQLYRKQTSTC

PHKG2 = PHKG2 (Homo sapiens, UniProt P15735)
PLK1 = PLK1 (Homo sapiens, UniProt P53350)
PRKCD (PKC delta) = PRKCD (PKC delta) (Homo sapiens, UniProt Q05655)
Sequence of PRKCD (PKC delta) (Q05655 whole entry): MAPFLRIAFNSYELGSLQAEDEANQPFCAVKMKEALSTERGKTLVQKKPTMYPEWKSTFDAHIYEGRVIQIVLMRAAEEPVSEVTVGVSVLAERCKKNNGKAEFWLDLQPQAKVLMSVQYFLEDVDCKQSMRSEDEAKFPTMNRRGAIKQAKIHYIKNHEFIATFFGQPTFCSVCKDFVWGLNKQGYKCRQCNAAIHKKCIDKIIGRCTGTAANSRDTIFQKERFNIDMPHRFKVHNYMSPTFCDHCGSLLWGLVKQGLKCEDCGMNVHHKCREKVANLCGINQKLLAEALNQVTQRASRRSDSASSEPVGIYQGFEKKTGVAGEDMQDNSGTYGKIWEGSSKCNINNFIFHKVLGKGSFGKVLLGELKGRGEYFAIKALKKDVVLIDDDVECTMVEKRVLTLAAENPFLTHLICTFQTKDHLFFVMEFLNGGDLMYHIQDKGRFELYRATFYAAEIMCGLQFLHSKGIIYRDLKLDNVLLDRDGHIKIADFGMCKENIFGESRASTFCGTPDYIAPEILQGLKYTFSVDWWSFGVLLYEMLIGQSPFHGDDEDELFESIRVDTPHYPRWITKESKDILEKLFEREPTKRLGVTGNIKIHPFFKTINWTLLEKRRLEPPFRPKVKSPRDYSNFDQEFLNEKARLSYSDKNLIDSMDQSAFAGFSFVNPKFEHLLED

PRKX = PRKX (Homo sapiens, UniProt P51817)
RET V804E = RET V804E (Homo sapiens, UniProt P07949, V804E)
Sequence of RET V804E (P07949 whole entry V804E): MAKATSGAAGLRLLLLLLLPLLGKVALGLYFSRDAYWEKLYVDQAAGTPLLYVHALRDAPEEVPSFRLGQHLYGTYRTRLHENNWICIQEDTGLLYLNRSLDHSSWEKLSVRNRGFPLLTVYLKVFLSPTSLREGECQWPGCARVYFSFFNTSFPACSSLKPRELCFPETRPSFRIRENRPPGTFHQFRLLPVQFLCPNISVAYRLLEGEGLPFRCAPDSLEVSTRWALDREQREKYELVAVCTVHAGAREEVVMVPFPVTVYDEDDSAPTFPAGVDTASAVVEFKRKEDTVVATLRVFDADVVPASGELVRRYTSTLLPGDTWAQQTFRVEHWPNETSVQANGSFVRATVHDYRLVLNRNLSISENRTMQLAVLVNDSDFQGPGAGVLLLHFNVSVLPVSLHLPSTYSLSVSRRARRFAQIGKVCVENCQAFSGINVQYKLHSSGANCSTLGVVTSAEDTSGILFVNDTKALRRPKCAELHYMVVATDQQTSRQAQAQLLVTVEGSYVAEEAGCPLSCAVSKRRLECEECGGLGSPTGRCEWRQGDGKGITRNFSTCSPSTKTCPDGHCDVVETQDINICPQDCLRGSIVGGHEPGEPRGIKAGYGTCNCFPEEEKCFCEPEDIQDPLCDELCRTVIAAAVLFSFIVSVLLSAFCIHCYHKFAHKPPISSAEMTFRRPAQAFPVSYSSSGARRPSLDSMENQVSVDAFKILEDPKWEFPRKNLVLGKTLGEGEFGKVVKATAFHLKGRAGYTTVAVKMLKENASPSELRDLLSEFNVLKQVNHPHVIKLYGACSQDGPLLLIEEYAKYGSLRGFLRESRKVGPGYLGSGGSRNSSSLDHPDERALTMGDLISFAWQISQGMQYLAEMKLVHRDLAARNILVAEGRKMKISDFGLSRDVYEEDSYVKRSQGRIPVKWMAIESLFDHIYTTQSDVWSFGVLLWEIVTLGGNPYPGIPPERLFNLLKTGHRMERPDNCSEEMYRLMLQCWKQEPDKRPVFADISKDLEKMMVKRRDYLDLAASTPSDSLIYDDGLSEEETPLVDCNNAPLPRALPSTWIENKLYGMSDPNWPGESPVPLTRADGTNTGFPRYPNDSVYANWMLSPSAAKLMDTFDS

RET Y791F = RET Y791F (Homo sapiens, UniProt P07949, Y791F)
Sequence of RET Y791F (P07949 whole entry Y791F): as the sequence (P07949 whole entry V804E) above, with Y791F, E804V counted along it

RPS6KA5 (MSK1) = RPS6KA5 (MSK1) (Homo sapiens, UniProt O75582)
RPS6KB1 (p70S6K) = RPS6KB1 (p70S6K) (Homo sapiens, UniProt P23443)

Sequence of CSNK1G2 (CK1 gamma 2) (P78368 whole entry): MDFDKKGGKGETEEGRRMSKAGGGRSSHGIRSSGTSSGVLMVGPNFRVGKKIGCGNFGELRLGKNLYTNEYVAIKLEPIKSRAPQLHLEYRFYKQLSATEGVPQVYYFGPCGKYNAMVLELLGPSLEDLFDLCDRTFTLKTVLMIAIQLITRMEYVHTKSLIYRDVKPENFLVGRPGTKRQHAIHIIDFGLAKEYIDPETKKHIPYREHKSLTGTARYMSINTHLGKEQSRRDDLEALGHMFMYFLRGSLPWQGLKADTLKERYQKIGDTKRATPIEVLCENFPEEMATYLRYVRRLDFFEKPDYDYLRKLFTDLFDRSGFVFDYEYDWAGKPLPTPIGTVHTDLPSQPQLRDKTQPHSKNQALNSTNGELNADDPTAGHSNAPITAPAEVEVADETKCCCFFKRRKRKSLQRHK

SMILES: COc1ccc2nc3cc(Cl)ccc3c(Nc3cc(CN4CCCC4)c(O)c(CN4CCCC4)c3)c2n1 [Pyronaridine, 4-[(7-Chloro-2-methoxybenzo[b][1,5]naphthyridin-10-yl)amino]-2,6-bis(1-pyrrolidinylmethyl)phenol phosphate (1:4)]
- inhibition at 1 µM (ABL1 Y253F): -1%
- inhibition at 1 µM (ALK): -1%
- inhibition at 1 µM (AURKC (Aurora C)): -11%
- inhibition at 1 µM (BRAF): 4%
- inhibition at 1 µM (CSNK1G2 (CK1 gamma 2)): 4%
- inhibition at 1 µM (DNA-PK): 5%
- inhibition at 1 µM (EEF2K): 1%
- inhibition at 1 µM (EGFR (ErbB1) G719C): -4%
- inhibition at 1 µM (EGFR (ErbB1) L861Q): -4%
- inhibition at 1 µM (EGFR (ErbB1) T790M): 2%
- inhibition at 1 µM (EPHA1): 1%
- inhibition at 1 µM (INSRR (IRR)): -1%
- inhibition at 1 µM (JAK2): 4%
- inhibition at 1 µM (JAK2 JH1 JH2 V617F): 0%
- inhibition at 1 µM (JAK3): 1%
- inhibition at 1 µM (MAPKAPK2): 10%
- inhibition at 1 µM (MAPKAPK3): 17%
- inhibition at 1 µM (MINK1): 7%
- inhibition at 1 µM (NTRK3 (TRKC)): 2%
- inhibition at 1 µM (PAK6): -2%
- inhibition at 1 µM (PHKG2): -2%
- inhibition at 1 µM (PLK1): 6%
- inhibition at 1 µM (PRKCD (PKC delta)): 3%
- inhibition at 1 µM (PRKX): 5%
- inhibition at 1 µM (RET V804E): 2%
- inhibition at 1 µM (RET Y791F): 5%
- inhibition at 1 µM (RPS6KA5 (MSK1)): 2%
- inhibition at 1 µM (RPS6KB1 (p70S6K)): 3%
